Results reported in patent EP3807270B1, “NOVEL HETEROARYL HETEROCYCLYL COMPOUNDS FOR THE TREATMENT OF AUTOIMMUNE DISEASE” (F. Hoffmann-La Roche AG, priority 2018, dated 2019).
pIC50: −log10 of the molar value.

Molecular target: T1, hTLR7 (Homo sapiens, UniProt Q9NYK1)
T1 sequence (Q9NYK1 27-1049): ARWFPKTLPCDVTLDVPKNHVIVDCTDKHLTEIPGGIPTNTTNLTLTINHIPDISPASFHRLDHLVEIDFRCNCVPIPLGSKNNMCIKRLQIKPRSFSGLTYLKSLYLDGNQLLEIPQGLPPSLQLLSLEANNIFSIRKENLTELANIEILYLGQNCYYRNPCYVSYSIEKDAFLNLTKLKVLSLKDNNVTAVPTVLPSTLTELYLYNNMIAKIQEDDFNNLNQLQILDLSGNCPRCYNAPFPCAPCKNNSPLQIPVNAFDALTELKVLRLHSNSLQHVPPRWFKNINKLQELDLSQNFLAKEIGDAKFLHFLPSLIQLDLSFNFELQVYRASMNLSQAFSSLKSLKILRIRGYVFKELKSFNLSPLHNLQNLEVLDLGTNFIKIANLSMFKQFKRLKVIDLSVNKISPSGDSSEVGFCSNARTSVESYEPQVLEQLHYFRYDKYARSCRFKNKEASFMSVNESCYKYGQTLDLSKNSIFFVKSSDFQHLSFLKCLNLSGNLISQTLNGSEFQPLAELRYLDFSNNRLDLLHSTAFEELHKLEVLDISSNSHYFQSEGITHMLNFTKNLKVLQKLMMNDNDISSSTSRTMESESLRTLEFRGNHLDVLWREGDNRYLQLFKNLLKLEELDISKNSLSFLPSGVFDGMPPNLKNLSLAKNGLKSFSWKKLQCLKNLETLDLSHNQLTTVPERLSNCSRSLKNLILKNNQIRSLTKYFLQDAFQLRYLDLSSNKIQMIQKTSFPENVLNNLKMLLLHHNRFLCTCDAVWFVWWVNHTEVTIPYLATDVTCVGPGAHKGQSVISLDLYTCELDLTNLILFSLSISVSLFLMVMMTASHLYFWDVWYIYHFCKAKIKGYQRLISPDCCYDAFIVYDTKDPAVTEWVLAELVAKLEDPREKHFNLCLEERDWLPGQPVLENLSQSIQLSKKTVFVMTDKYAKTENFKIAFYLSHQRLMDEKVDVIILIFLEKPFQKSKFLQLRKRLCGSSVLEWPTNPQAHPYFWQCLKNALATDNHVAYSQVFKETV
Experiment: HEK293-Blue-hTLR-7 cells assay (SEAP reporter, R848 stimulation)
Assay type: cell-based
Parameters: host or cells: HEK293 (HEK-Blue)
Conditions: HEK293-Blue-hTLR7 cells, R848, 20 hrs; read-out: HEK/hTLR7 IC50
Text: A stable HEK293-Blue-hTLR-7 cell line was purchased from InvivoGen (Cat.#: hkb-htlr7, San Diego, California, USA). These cells were originally designed for studying the stimulation of human TLR7 by monitoring the activation of NF-κB. A SEAP (secreted embryonic alkaline phosphatase) reporter gene was placed under the control of the IFN-β minimal promoter fused to five NF-κB and AP-1-binding sites. The SEAP was induced by activating NF-xB and AP-1 via stimulating HEK-Blue hTT,R7 cells with TLR7 ligands. Therefore, the reporter expression was declined by TLR7 antagonist under the stimulation of a ligand, such as R848 (Resiquimod), for incubation of 20 hrs. The cell culture supernatant SEAP reporter activity was determined using QUANTI-Blue™ kit (Cat.#: rep-qb1, Invivogen, San Diego, Ca, USA) at a wavelength of 640 nm, a detection medium that turns purple or blue in the presence of alkaline phosphatase.
HEK293-Blue-hTLR7 cells were incubated at a density of 250,000-450,000 cells/mL in a volume of 170 µL in a 96-well plate in Dulbecco's Modified Eagle's medium (DMEM) containing 4.5 g/L glucose, 50 U/mL penicillin, […], […], 2 mM L-glutamine, 10% (v/v) heat-inactivated fetal bovine serum with addition of 20 µL test compound in a serial dilution in the presence of final DMSO at 1% and 10 µL of 20uM R848 in above DMEM, perform incubation under 37 °C in a CO2 incubator for 20 hrs. Then 20 µL of the supernatant from each well was incubated with 180 µL Quanti-blue substrate solution at 37 °C for 2 hrs and the absorbance was read at 620-655 nm using a spectrophotometer. The signaling pathway that TLR7 activation leads to downstream NF-xB activation has been widely accepted, and therefore similar reporter assay was modified for evaluating TLR7 antagonist.

In order of falling pIC50:
1. C[C@@H]1CN(c2ccc(C#N)c3nccnc23)C[C@H](CN2CCN(c3cc4c(cn3)[C@H](C)NCC4)CC2)O1 (single isomer, unassigned) [Example 85]  8.30
2. C[C@@H]1CN(c2ccc(C#N)c3ncccc23)C[C@H](CN2C[C@H]3CN(c4ccc5c(n4)CCNC5)CC[C@@H]32)O1 (single isomer, unassigned) [Example 54]  8.22
3. C[C@@H]1CN(c2ccc(C#N)c3ncccc23)C[C@H](CN2CCN(c3ccc4c(n3)[C@@H](C)NC4)CC2)O1 (single isomer, unassigned) [Example 65]  8.15
4. C[C@@H]1CN(c2ccc(C#N)c3ncccc23)C[C@H](CN2CCN(c3cc4c(cn3)CCN[C@H]4C)CC2)O1 (single isomer, unassigned) [Example 75]  8.10
5. C[C@@H]1CN(c2ccc(C#N)c3ncccc23)C[C@H](CN2CCN(c3ccc4c(n3)CN[C@H]4C)CC2)O1 (single isomer, unassigned) [Example 63]  7.96
6. C[C@@H]1Cc2cnc(N3CCN(C[C@H]4CN(c5ccc(C#N)c6ncccc56)C[C@@H](C)O4)CC3)cc2CN1 (single isomer, unassigned) [Example 77]  7.96
7. C[C@@H]1Cc2cnc(N3CCN(C[C@H]4CN(c5ccc(C#N)c6nccnc56)C[C@@H](C)O4)CC3)cc2CN1 (single isomer, unassigned) [Example 82]  7.96
8. C[C@@H]1CN(c2ccc(C#N)c3ncccc23)C[C@H](CN2CCN(c3ncc4c(n3)CNCC4)CC2)O1 [Example 12, 5-[(2R,6S)-2-methyl-6-[[4-(5,6,7,8-tetrahydropyrido[3,4-d]pyrimidin-2-yl)piperazin-1-yl]methyl]morpholin-4-yl]quinoline-8-carbonitrile]  7.96
9. CC1NCc2cc(N3CCN(C[C@H]4CN(c5ccc(C#N)c6ncccc56)C[C@@H](C)O4)CC3)ccc21 (stereo partly drawn) [Example 28, 5-[(2R,6S)-2-methyl-6-[[4-(1-methylisoindolin-5-yl)piperazin-1-yl]methyl]morpholin-4-yl]quinoline-8-carbonitrile]  7.96
10. C[C@@H]1CN(c2ccc(C#N)c3ncccc23)C[C@H](CN2CCN(c3nc4c(s3)CNCC4)CC2)O1 [Example 31, 5-[(2R,6S)-2-methyl-6-[[4-(4,5,6,7-tetrahydrothiazolo[5,4-c]pyridin-2-yl)piperazin-1-yl]methyl]morpholin-4-yl]quinoline-8-carbonitrile]  7.96
11. Cc1nc2c(nc1N1CCN(C[C@H]3CN(c4ccc(C#N)c5ncccc45)C[C@@H](C)O3)CC1)CCNC2 [Example 60, 5-[(2R,6S)-2-methyl-6-[[4-(3-methyl-5,6,7,8-tetrahydropyrido[3,4-b]pyrazin-2-yl)piperazin-1-yl]methyl]morpholin-4-yl]quinoline-8-carbonitrile]  7.96
12. C[C@@H]1CN(c2ccc(C#N)c3ncccc23)C[C@H](CN2CCN(c3ccc4c(n3)CN[C@@H]4C)CC2)O1 (single isomer, unassigned) [Example 64]  7.92
13. C[C@@H]1CN(c2ccc(C#N)c3ncccc23)C[C@H](CN2CC3(C2)CN(c2ncc4c(n2)CCNC4)CCO3)O1 [Example 51, 5-[(2R,6S)-2-methyl-6-[[8-(5,6,7,8-tetrahydropyrido[4,3-d]pyrimidin-2-yl)-5-oxa-2,8-diazaspiro[3.5]nonan-2-yl]methyl]morpholin-4-yl]quinoline-8-carbonitrile]  7.92
14. C[C@@H]1CN(c2ccc(C#N)c3ncccc23)C[C@H](CN2CCN(c3cnc4c(c3)CN[C@H]4C)CC2)O1 (single isomer, unassigned) [Example 67]  7.89
15. C[C@@H]1CN(c2ccc(C#N)c3ncccc23)C[C@H](CN2CCN(c3cc4c(cn3)[C@H](C)NCC4)CC2)O1 (single isomer, unassigned) [Example 72]  7.89
16. C[C@@H]1CN(c2ccc(C#N)c3ncccc23)C[C@H](CN2CCN(c3ccc4c(n3)[C@H](C)NC4)CC2)O1 (single isomer, unassigned) [Example 66]  7.85
17. C[C@@H]1CN(c2ccc(C#N)c3ncccc23)C[C@H](CN2CCN(c3cc4c(cn3)CN[C@@H](C)C4)CC2)O1 (single isomer, unassigned) [Example 71]  7.62
18. C[C@@H]1Cc2cc(N3CCN(C[C@H]4CN(c5ccc(C#N)c6ncccc56)C[C@@H](C)O4)CC3)ncc2CN1 (single isomer, unassigned) [Example 70]  7.59
19. C[C@@H]1CN(c2ccc(C#N)n3ncc(F)c23)C[C@H](CN2CCN(c3cnc4c(c3)CNC4)CC2)O1 [Example 26, 4-[(2S,6R)-2-[[4-(6,7-dihydro-5H-pyrrolo[3,4-b]pyridin-3-yl)piperazin-1-yl]methyl]-6-methyl-morpholin-4-yl]-3-fluoro-pyrazolo[1,5-a]pyridine-7-carbonitrile]  7.41
20. C[C@@H]1CN(c2ccc(C#N)c3ncccc23)C[C@H](CN2CCN(c3ccc4c(c3)C(O)CN(C)C4)CC2)O1 (stereo partly drawn) [Example 59, 5-[(2S,6R)-2-[[4-(4-hydroxy-2-methyl-3,4-dihydro-1H-isoquinolin-6-yl)piperazin-1-yl]methyl]-6-methyl-morpholin-4-yl]quinoline-8-carbonitrile]  7.39
21. C[C@@H]1CN(c2ccc(C#N)c3ncccc23)C[C@H](CN2CCN(c3ccc4c(c3)CNC4)C(CO)C2)O1 (stereo partly drawn) [Example 13, 5-[(2S,6R)-2-[[3-(hydroxymethyl)-4-isoindolin-5-yl-piperazin-1-yl]methyl]-6-methyl-morpholin-4-yl]quinoline-8-carbonitrile]  7.24
22. C[C@@H]1CN(c2ccc(C#N)c3ncccc23)C[C@H](CN2CCN(c3ccc4c(n3)CCNC4)C[C@H](O)C2)O1 (single isomer, unassigned) [Example 35A]  7.22
23. C[C@@H]1CN(c2ccc(C#N)c3ncccc23)C[C@H](CN2CCN(c3ccc4c(n3)CCNC4)C[C@@H](O)C2)O1 (single isomer, unassigned) [Example 35B]  7.21
24. C[C@@H]1CN(c2ccc(C#N)c3ncccc23)C[C@H](CN2CCN(c3ccc4c(c3)CNC4)[C@@H](CO)C2)O1 [Example 4, 5-[(2S,6R)-2-[[(3R)-3-(hydroxymethyl)-4-isoindolin-5-yl-piperazin-1-yl]methyl]-6-methyl-morpholin-4-yl]quinoline-8-carbonitrile]  7.19
25. C[C@@H]1CN(c2ccc(C#N)c3ncccc23)C[C@H](CN2CCC(Nc3ccc4c(c3)CNC4)C2)O1 (stereo partly drawn) [Example 38, 5-[(2S,6R)-2-[[3-(isoindolin-5-ylamino)pyrrolidin-1-yl]methyl]-6-methyl-morpholin-4-yl]quinoline-8-carbonitrile]  7.19
26. C[C@@H]1CN(c2ccc(C#N)c3ncccc23)C[C@H](CN2CCN(c3ccc4c(c3)CNC4)CC2CO)O1 (stereo partly drawn) [Example 15, 5-[(2S,6R)-2-[[2-(hydroxymethyl)-4-isoindolin-5-yl-piperazin-1-yl]methyl]-6-methyl-morpholin-4-yl]quinoline-8-carbonitrile]  7.14
27. C[C@@H]1CN(c2ccc(C#N)c3ncccc23)C[C@H](CNC2CN(c3cnc4c(c3)CNC4)C2)O1 [Example 43, 5-[(2S,6R)-2-[[[1-(6,7-dihydro-5H-pyrrolo[3,4-b]pyridin-3-yl)azetidin-3-yl]amino]methyl]-6-methyl-morpholin-4-yl]quinoline-8-carbonitrile]  6.89
